Experimental data published in patent US20260285850A1, “SUBSTITUTED OXAZOLIDINONES AND IMIDAZOLINONES AS HERBICIDES” (FMC CORPORATION, priority 2023, published 2026).

Key:
Type in all cases: in vivo
[1] = test system: wheat (Triticum aestivum); test: Test A postemergence application, visual injury rating 0-100
Summary of the method: (§1)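 Plants in a loam and sand soil blend were treated with each test chemical, in a non-phytotoxic solvent system including surfactant, either sprayed on seeded soil before emergence or applied after emergence at the one- to two-leaf stage. Ten days later in the greenhouse, plants were compared with untreated controls and visually rated from 0 (no effect) to 100 (complete control).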

[2] = test system: kochia (Bassia scoparia); test: as above
Summary of the method: as §1

[3] = test system: oat, wild (wild oat, Avena fatua); test: as above
Summary of the method: as §1

[4] = test system: horseweed (Erigeron canadensis); test: as above
Summary of the method: as §1

[5] = test system: palmer (palmer amaranth, palmer pigweed, Amaranthus palmeri); test: as above
Summary of the method: as §1

[6] = test system: ragweed (common ragweed, Ambrosia artemisiifolia); test: as above
Summary of the method: as §1

[7] = test system: blackgrass (Alopecurus myosuroides); test: as above
Summary of the method: as §1

[8] = test system: soybean (Glycine max); test: as above
Summary of the method: as §1

[9] = test system: green foxtail (Setaria viridis); test: as above
Summary of the method: as §1

[10] = test system: ryegrass, Italian (italian ryegrass, Lolium multiflorum); test: as above
Summary of the method: as §1

[11] = test system: barnyardgrass (Echinochloa crus-galli); test: as above
Summary of the method: as §1

[12] = test system: corn (Zea mays); test: as above
Summary of the method: as §1

[13] = test system: wheat (Triticum aestivum); test: Test A preemergence soil spray, visual injury rating 0-100; conditions: 10 days
Summary of the method: as §1

[14] = test system: kochia (Bassia scoparia); test: as above; conditions: 10 days
Summary of the method: as §1

[15] = test system: oat, wild (wild oat, Avena fatua); test: as above; conditions: 10 days
Summary of the method: as §1

[16] = test system: palmer (palmer amaranth, palmer pigweed, Amaranthus palmeri); test: as above; conditions: 10 days
Summary of the method: as §1

[17] = test system: ragweed (common ragweed, Ambrosia artemisiifolia); test: as above; conditions: 10 days
Summary of the method: as §1

[18] = test system: blackgrass (Alopecurus myosuroides); test: as above; conditions: 10 days
Summary of the method: as §1

[19] = test system: soybean (Glycine max); test: as above; conditions: 10 days
Summary of the method: as §1

[20] = test system: green foxtail (Setaria viridis); test: as above; conditions: 10 days
Summary of the method: as §1

[21] = test system: ryegrass, Italian (italian ryegrass, Lolium multiflorum); test: as above; conditions: 10 days
Summary of the method: as §1

[22] = test system: barnyardgrass (Echinochloa crus-galli); test: as above; conditions: 10 days
Summary of the method: as §1

[23] = test system: corn (Zea mays); test: as above; conditions: 10 days
Summary of the method: as §1

[24] = test system: sedge, umbrella (small-flower umbrella sedge, Cyperus difformis); test: Test B flooded paddy test, visual plant response rating 0-100; conditions: 250 g ai/ha, Flood, applied to paddy water, evaluated after 13 days
Summary of the method: (§2)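 Visual scores versus untreated controls were recorded 13 days after treatment of greenhouse-held plants. At the 2-leaf stage, pots were flooded 3 cm above the soil surface and compounds added straight to the water.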

[25] = test system: ducksalad (Heteranthera limosa); test: as above; conditions: 250 g ai/ha, Flood, applied to paddy water, evaluated after 13 days
Summary of the method: as §2

[26] = test system: rice (Oryza sativa); test: as above; conditions: 250 g ai/ha, Flood, applied to paddy water, evaluated after 13 days
Summary of the method: as §2

[27] = test system: barnyardgrass (Echinochloa crusgalli); test: as above; conditions: 250 g ai/ha, Flood, applied to paddy water, evaluated after 13 days
Summary of the method: as §2

[28] = 62 g ai/ha, postemergence, 10 days, 0 = no effect, 100 = complete control
[29] = Postemergence, 16 g ai/ha, greenhouse 10 days, 0 no effect, 100 complete control
[30] = 62 g ai/ha, 0 = no effect, 100 = complete control

COC(=O)C1CC(NC(=O)C2(C)CN(c3cc(F)cc(Cl)c3)C(=O)O2)C1 (centres unmarked) [Compound 145]
Wheat plant response rating (0-100) [1, 28]: 90
Wheat plant response rating (0 to 100 scale) [1, 29]: 90
Kochia plant response rating (0-100) [2, 28]: 90
Kochia plant response rating (0 to 100 scale) [2, 29]: 60
Oat, Wild plant response rating (0-100) [3, 28]: 90
Oat, Wild plant response rating (0 to 100 scale) [3, 29]: 90
Horseweed plant response rating (0-100) [4, 28]: 30
Horseweed plant response rating (0 to 100 scale) [4, 29]: 30
Pigweed, Palmer plant response rating (0-100) [5, 28]: 70
Pigweed, Palmer plant response rating (0 to 100 scale) [5, 29]: 10
Ragweed plant response rating (0-100) [6, 28]: 20
Ragweed plant response rating (0 to 100 scale) [6, 29]: 0
Blackgrass plant response rating (0-100) [7, 28]: 100
Blackgrass plant response rating (0 to 100 scale) [7, 29]: 90
Soybean plant response rating (0-100) [8, 28]: 80
Soybean plant response rating (0 to 100 scale) [8, 29]: 50
Foxtail, Green plant response rating (0-100) [9, 28]: 90
Foxtail, Green plant response rating (0 to 100 scale) [9, 29]: 90
Ryegrass, Italian plant response rating (0-100) [10, 28]: 90
Ryegrass, Italian plant response rating (0 to 100 scale) [10, 29]: 70
Barnyardgrass plant response rating (0-100) [11, 28]: 100
Barnyardgrass plant response rating (0 to 100 scale) [11, 29]: 100
Corn plant response rating (0-100) [12, 28]: 100
Corn plant response rating (0 to 100 scale) [12, 29]: 100
Wheat plant response rating ([13]; 16 g ai/ha, 0 to 100 scale): 80
Wheat plant response rating (0-100) [13, 30]: 90
Kochia plant response rating ([14]; 16 g ai/ha, 0 to 100 scale): 0
Kochia plant response rating (0-100) [14, 30]: 0
Oat, Wild plant response rating ([15]; 16 g ai/ha, 0 to 100 scale): 20
Oat, Wild plant response rating (0-100) [15, 30]: 80
Pigweed, Palmer plant response rating ([16]; 16 g ai/ha, 0 to 100 scale): 0
Pigweed, Palmer plant response rating (0-100) [16, 30]: 0
Ragweed plant response rating ([17]; 16 g ai/ha, 0 to 100 scale): 0
Ragweed plant response rating (0-100) [17, 30]: 0
Blackgrass plant response rating ([18]; 16 g ai/ha, 0 to 100 scale): 0
Blackgrass plant response rating (0-100) [18, 30]: 80
Soybean plant response rating ([19]; 16 g ai/ha, 0 to 100 scale): 0
Soybean plant response rating (0-100) [19, 30]: 50
Foxtail, Green plant response rating ([20]; 16 g ai/ha, 0 to 100 scale): 10
Foxtail, Green plant response rating (0-100) [20, 30]: 90
Ryegrass, Italian plant response rating ([21]; 16 g ai/ha, 0 to 100 scale): 30
Ryegrass, Italian plant response rating (0-100) [21, 30]: 100
Barnyardgrass plant response rating ([22]; 16 g ai/ha, 0 to 100 scale): 20
Barnyardgrass plant response rating (0-100) [22, 30]: 80
Corn plant response rating ([23]; 16 g ai/ha, 0 to 100 scale): 10
Corn plant response rating (0-100) [23, 30]: 80
Plant response rating, Sedge, Umbrella (0 to 100 scale, 0 is no effect and 100 is complete control) [24]: 50
Plant response rating, Ducksalad (0 to 100 scale, 0 is no effect and 100 is complete control) [25]: 60
Plant response rating, Rice (0 to 100 scale, 0 is no effect and 100 is complete control) [26]: 40
Plant response rating, Barnyardgrass (0 to 100 scale, 0 is no effect and 100 is complete control) [27]: 60
